The target of this test is YKL-40 (Homo sapiens (Human), UniProt P36222). The experiment in a line: YKL-40:4 assay, competitive chitin binding site AlphaScreen. The settings on record: competition with biotinylated compound 4 (20 nM), YKL-40-histag 2.5 nM.

Structures can show the parent of a compound that is named as a salt.

Chain of YKL-40 (P36222 22-383): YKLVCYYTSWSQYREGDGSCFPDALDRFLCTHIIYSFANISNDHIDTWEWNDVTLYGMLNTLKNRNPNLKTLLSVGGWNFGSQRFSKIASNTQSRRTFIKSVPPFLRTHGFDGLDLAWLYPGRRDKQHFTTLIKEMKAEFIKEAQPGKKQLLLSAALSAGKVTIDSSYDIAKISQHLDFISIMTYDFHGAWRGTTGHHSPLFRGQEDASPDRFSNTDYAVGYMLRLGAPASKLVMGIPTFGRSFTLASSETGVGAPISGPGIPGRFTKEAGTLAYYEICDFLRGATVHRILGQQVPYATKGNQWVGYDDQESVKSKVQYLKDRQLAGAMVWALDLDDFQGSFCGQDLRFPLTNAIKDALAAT

For `CC(C)C1OC[C@H](Cc2ccc(Cl)cc2)N1C1CCN(c2ccccn2)CC1` (stereo partly drawn) [compound 150, (4S)-4-(4-chlorobenzyl)-2-isopropyl-3-(1-(pyridin-2-yl)piperidin-4-yl)oxazolidine hydrochloride], the IC50 (in general, the concentration needed to halve the response being measured) is above 100 µM. With `CN1C[C@H](Cc2ccc(Cl)cc2)N(C2CCN(c3cc(Cl)ccn3)CC2)C[C@@H]1CO` [compound 50, ((2R,5S)-5-(4-chlorobenzyl)-4-(1-(4-chloropyridin-2-yl)piperidin-4-yl)-1-methyl-piperazin-2-yl)methanol] the figure was below 0.1 µM; with `Cc1ccc(N2CCC(N3C[C@H](C)OC[C@@H]3Cc3ccc(Cl)cc3)CC2)nc1` [compound 136, (2S,5S)-5-(4-chlorobenzyl)-2-methyl-4-(1-(5-methylpyridin-2-yl)piperidin-4-yl)morpholine hydrochloride], above 100 µM. With `CC[C@H]1CN(C2CCN(c3ccccn3)CC2)[C@@H](Cc2ccc(Cl)cc2)CN1C` [compound 93, (2S,5S)-2-(4-chlorobenzyl)-5-ethyl-4-methyl-1-(1-(pyridin-2-yl)piperidin-4-yl)piperazine 2,2,2-trifluoroacetate] the figure was 10 to 100 µM; with `C[C@H]1CN(C2CCN(c3ncc(F)cc3F)CC2)[C@@H](Cc2ccc(Cl)cc2)CO1` [Example 25, (2S,5S)-5-(4-chlorobenzyl)-4-(1-(3,5-difluoropyridin-2-yl)piperidin-4-yl)-2-methylmorpholine 2,2,2-trifluoroacetate], above 100 µM; with `C[C@H]1CN(C2CCN(c3ccncc3)CC2)[C@@H](Cc2ccc(Cl)cc2)CO1` [Example 28, (2S,5S)-5-(4-chlorobenzyl)-2-methyl-4-(1-(pyridin-4-yl)piperidin-4-yl)morpholine 2,2,2-trifluoroacetate], above 100 µM. For `CO[C@@H]1CCN(C2CCN(c3ccccn3)CC2)[C@@H](Cc2ccc(Cl)cc2)C1` [compound 108, (2S,4R)-2-(4-chlorobenzyl)-4-methoxy-1′-(pyridin-2-yl)-1,4′-bipiperidine 2,2,2-trifluoroacetate], the IC50 was below 0.1 µM. The compound `COC(=O)c1ccnc(N2CCC(N3C[C@H](C)OC[C@@H]3Cc3ccc(Cl)cc3)CC2)c1` [compound 124, methyl 2-(4-((2S,5S)-5-(4-chlorobenzyl)-2-methylmorpholino)piperidin-1-yl)isonicotinate] yielded an IC50 above 100 µM. As to `C[C@H]1CN(C2CCN(c3ccc(Cl)cn3)CC2)[C@@H](Cc2ccc(Cl)cc2)CO1` [Example 11, (2S,5S)-5-(4-chlorobenzyl)-4-(1-(5-chloropyridin-2-yl)piperidin-4-yl)-2-methylmorpholine 2,2,2-trifluoroacetate], the IC50 was in the range of 0.1 to 1 µM. For `C[C@H]1CN(C2CCN(c3noc(C(F)(F)F)n3)CC2)[C@@H](Cc2ccc(Cl)cc2)CO1` [compound 164, (2S,5S)-5-(4-chlorobenzyl)-2-methyl-4-(1-(5-(trifluoromethyl)-1,2,4-oxadiazol-3-yl)piperidin-4-yl)morpholine 2,2,2-trifluoroacetate], the 50% inhibitory concentration (IC50) is above 100 µM. In the case of `Cc1noc(N2CCC(N3C[C@H](C)OC[C@@H]3Cc3ccc(Cl)cc3)CC2)n1` [compound 188, (2S,5S)-5-(4-chlorobenzyl)-2-methyl-4-(1-(3-methyl-1,2,4-oxadiazol-5-yl)piperidin-4-yl)morpholine 2,2,2-trifluoroacetate], the IC50 was above 100 µM.

Compound `CO[C@H]1CCN(C2CCN(c3ccccn3)CC2)[C@@H](Cc2ccc(Cl)cc2)C1` [compound 109, (2S,4S)-2-(4-chlorobenzyl)-4-methoxy-1′-(pyridin-2-yl)-1,4′-bipiperidine 2,2,2-trifluoroacetate] displayed an IC50 of 0.1 to 1 µM. The figure for `C[C@H]1CN(C2CCN(c3cccc4nccn34)CC2)[C@@H](Cc2ccc(Cl)cc2)CO1` [compound 157, (2S,5S)-5-(4-chlorobenzyl)-4-(1-(imidazo[1,2-α]pyridin-5-yl)piperidin-4-yl)-2-methylmorpholine hydrochloride] is 10 to 100 µM. The figure for `C[C@H]1CN(C2CCN(c3cc(C(F)(F)F)ncn3)CC2)[C@@H](Cc2ccc(Cl)cc2)CO1` [compound 145, (2S,5S)-5-(4-chlorobenzyl)-2-methyl-4-(1-(6-(trifluoromethyl)pyrimidin-4-yl)piperidin-4-yl)morpholine hydrochloride] is above 100 µM. `C[C@H]1CN(C2CCN(c3cccc(Cl)n3)CC2)[C@@H](Cc2ccc(Cl)cc2)CO1` [Example 14, (2S,5S)-5-(4-chlorobenzyl)-4-(1-(6-chloropyridin-2-yl)piperidin-4-yl)-2-methylmorpholine 2,2,2-trifluoroacetate] displayed an IC50 of 1 to 10 µM. The figure for `C[C@H]1CN(C2CCN(c3cc(C(C)(C)O)ccn3)CC2)[C@@H](Cc2ccc(Cl)cc2)CO1` [compound 131, 2-(2-(4-((2S,5S)-5-(4-chlorobenzyl)-2-methylmorpholino)piperidin-1-yl)pyridin-4-yl)propan-2-ol 2,2,2-trifluoroacetate] is above 100 µM. The figure for `CN1C[C@H](Cc2ccc(Cl)cc2)N(C2CCN(c3ccccn3)CC2)CC12CCC2` [compound 148, (S)-7-(4-chlorobenzyl)-5-methyl-8-(1-(pyridin-2-yl)piperidin-4-yl)-5,8-diazaspiro[3.5]nonane hydrochloride] is 0.1 to 1 µM; for `CC(C)[C@H]1CN(C2CCN(c3ccccn3)CC2)[C@@H](Cc2ccc(Cl)cc2)CN1C` [compound 62, (2S,5S)-2-(4-chlorobenzyl)-5-isopropyl-4-methyl-1-(1-(pyridin-2-yl)piperidin-4-yl)piperazine 2,2,2-trifluoroacetate] it is below 0.1 µM; for `C[C@H]1CN(C2CCN(c3ccnc(F)c3)CC2)[C@@H](Cc2ccc(Cl)cc2)CO1` [Example 15, (2S,5S)-5-(4-chlorobenzyl)-4-(1-(2-fluoropyridin-4-yl)piperidin-4-yl)-2-methylmorpholine 2,2,2-trifluoroacetate] it is 1 to 10 µM. The figure for `C[C@H]1CN(C2CCN(c3ncns3)CC2)[C@@H](Cc2ccc(Cl)cc2)CO1` [compound 179, (2S,5S)-4-(1-(1,2,4-thiadiazol-5-yl)piperidin-4-yl)-5-(4-chlorobenzyl)-2-methylmorpholine 2,2,2-trifluoroacetate] is above 100 µM; for `CN(C)C(=O)OC[C@H]1CN(C2CCN(c3ncccn3)CC2)[C@@H](Cc2ccc(Cl)cc2)CO1` [compound 70, ((2R,5S)-5-(4-chlorobenzyl)-4-(1-(pyrimidin-2-yl)piperidin-4-yl)morpholin-2-yl)methyl dimethylcarbamate 2,2,2-trifluoroacetate] it is 1 to 10 µM.

In turn, `C[C@H]1CN(C2CCN(c3cccnc3)CC2)[C@@H](Cc2ccc(Cl)cc2)CO1` [Example 27, (2S,5S)-5-(4-chlorobenzyl)-2-methyl-4-(1-(pyridin-3-yl)piperidin-4-yl)morpholine 2,2,2-trifluoroacetate] showed an IC50 above 100 µM.

In the case of `C[C@H]1CN(C2CCN(c3ncnc(C#N)n3)CC2)[C@@H](Cc2ccc(Cl)cc2)CO1` [compound 173, 4-(4-((2S,5S)-5-(4-chlorobenzyl)-2-methylmorpholino)piperidin-1-yl)-1,3,5-triazine-2-carbonitrile 2,2,2-trifluoroacetate], the IC50 was above 100 µM.

For the origin of these results see patent US20230278996A1, “YKL-40 INHIBITORS AND THEIR THERAPEUTIC APPLICATIONS” (Molecure S.A., priority 2022, published 2023).
